Measurements as given in publication PMC10709440, “High-throughput ligand profile characterization in novel cell lines expressing seven heterologous insect olfactory receptors for the detection of volatile plant biomarkers” (Scientific Reports, 2023).
Like-named read-outs stand apart in the source and are kept apart here.

Columns and labels:
Drosophila OR13a = target: T1, Drosophila OR13a (Drosophila melanogaster, UniProt Q9VXL0); assay: Calcium ion fluorescence (GCaMP6) assay, OR13a stable HEK293 cell line; assay type: cell-based
T1 construct: expressed in transfected cells
T1 sequence (Q9VXL0 1-418): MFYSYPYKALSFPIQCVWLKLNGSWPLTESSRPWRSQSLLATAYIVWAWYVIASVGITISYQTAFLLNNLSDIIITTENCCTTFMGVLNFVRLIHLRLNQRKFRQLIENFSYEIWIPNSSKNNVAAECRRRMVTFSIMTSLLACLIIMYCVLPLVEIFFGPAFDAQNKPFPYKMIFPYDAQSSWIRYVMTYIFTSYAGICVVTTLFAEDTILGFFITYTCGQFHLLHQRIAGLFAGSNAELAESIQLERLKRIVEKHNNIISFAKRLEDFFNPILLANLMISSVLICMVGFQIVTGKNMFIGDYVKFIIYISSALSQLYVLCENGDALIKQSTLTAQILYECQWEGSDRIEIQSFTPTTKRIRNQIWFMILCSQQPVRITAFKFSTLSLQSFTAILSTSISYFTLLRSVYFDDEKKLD
T1 sequence (Q9VNB5 1-486 partner): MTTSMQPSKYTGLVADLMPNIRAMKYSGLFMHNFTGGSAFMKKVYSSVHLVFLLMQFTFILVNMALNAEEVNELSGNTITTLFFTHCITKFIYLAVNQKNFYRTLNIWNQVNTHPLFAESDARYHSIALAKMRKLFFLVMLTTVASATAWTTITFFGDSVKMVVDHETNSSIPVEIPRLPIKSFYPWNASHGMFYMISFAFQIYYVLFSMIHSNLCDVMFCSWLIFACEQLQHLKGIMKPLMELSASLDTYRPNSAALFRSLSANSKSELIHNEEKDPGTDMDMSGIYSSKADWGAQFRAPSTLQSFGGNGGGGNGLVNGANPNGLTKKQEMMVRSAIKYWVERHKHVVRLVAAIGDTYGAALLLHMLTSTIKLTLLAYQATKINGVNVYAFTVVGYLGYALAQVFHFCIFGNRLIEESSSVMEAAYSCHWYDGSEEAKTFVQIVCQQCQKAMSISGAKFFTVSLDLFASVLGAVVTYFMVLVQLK
Method in brief: (§1)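 Responses are VUAA1-normalized ΔF: each VOC-evoked calcium signal, (FMAX−F0)/F0 over 30 s after injection, divided by the same line's mean 50 µM VUAA1 response. Cells were doxycycline-induced HEK293 with GCaMP6 and the cognate Drosophila OR, in HEPES buffer pH 7.3; ligands tested 0.01–100 μM.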

Drosophila OR49b = target: T2, Drosophila OR49b (Drosophila melanogaster, UniProt Q9V6H2); assay: cell-based; conditions: for Average response: mean of biological replicates; for activation at 1 µM / activation at 10 µM / activation at 100 µM: HEK293
T2 construct: expressed in transfected cells
T2 sequence (Q9V6H2 1-375): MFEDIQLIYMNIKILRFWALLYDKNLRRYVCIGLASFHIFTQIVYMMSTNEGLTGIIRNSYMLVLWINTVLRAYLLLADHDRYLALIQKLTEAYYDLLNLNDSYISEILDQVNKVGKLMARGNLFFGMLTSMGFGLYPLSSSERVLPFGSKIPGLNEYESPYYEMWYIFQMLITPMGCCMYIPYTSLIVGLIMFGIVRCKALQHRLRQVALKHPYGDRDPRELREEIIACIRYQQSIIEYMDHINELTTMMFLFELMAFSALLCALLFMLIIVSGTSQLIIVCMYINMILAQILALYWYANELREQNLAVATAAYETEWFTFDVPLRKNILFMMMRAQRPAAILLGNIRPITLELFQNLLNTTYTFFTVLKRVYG
T2 sequence (Q9VNB5 1-486 partner): T1 sequence (Q9VNB5 1-486 partner)
Method in brief: as §1

[1] = 1 μM VOC, 50 μM VUAA1 = 1, responses not exceeding 0.05 considered 0
[2] = 10 μM VOC, 50 μM VUAA1 = 1, responses not exceeding 0.05 considered 0
[3] = 100 μM VOC, 50 μM VUAA1 = 1, responses not exceeding 0.05 considered 0
[4] = concentration 1, normalized fluorescence change, values below 0.05 threshold given as 0
[5] = concentration 10, normalized fluorescence change, values below 0.05 threshold given as 0
[6] = concentration 100, normalized fluorescence change, values below 0.05 threshold given as 0
[7] = OR49b cell line, odorant cc. 1 µM
[8] = OR49b cell line, odorant cc. 10 µM
[9] = OR49b cell line, odorant cc. 100 µM
[10] = HEK293, read-out: OR13a Average response (VUAA1-normalized), 1 μM VOC, 50 μM VUAA1 = 1, responses not exceeding 0.05 considered 0
[11] = HEK293, read-out: OR13a Average response (VUAA1-normalized), 10 μM VOC, 50 μM VUAA1 = 1, responses not exceeding 0.05 considered 0
[12] = HEK293, read-out: OR13a Average response (VUAA1-normalized), 100 μM VOC, 50 μM VUAA1 = 1, responses not exceeding 0.05 considered 0
[13] = ligand concentration 1 (unit not given), threshold 0.05, below shown as 0
[14] = ligand concentration 10 (unit not given), threshold 0.05, below shown as 0
[15] = ligand concentration 100 (unit not given), threshold 0.05, below shown as 0
[16] = HEK293, read-out: OR13a response (VUAA1-normalized response), VOC concentration 1 μM
[17] = HEK293, read-out: OR13a response (VUAA1-normalized response), VOC concentration 10 μM
[18] = HEK293, read-out: OR13a response (VUAA1-normalized response), VOC concentration 100 μM
[19] = VOC concentration 1 μM, read-out: OR49b response (VUAA1-normalized response)
[20] = VOC concentration 10 μM, read-out: OR49b response (VUAA1-normalized response)
[21] = VOC concentration 100 μM, read-out: OR49b response (VUAA1-normalized response)
[22] = ligand concentration 1 (unit not given), 0.05 threshold, values below shown as 0
[23] = ligand concentration 10 (unit not given), 0.05 threshold, values below shown as 0
[24] = ligand concentration 100 (unit not given), 0.05 threshold, values below shown as 0

Structure (SMILES)	OR13a Average response (VUAA1-normalized) (Drosophila OR13a; [1])	OR13a Average response (VUAA1-normalized) (Drosophila OR13a; [2])	OR13a Average response (VUAA1-normalized) (Drosophila OR13a; [3])	OR13a response (VUAA1-normalized response) (Drosophila OR13a; VOC concentration 1 μM)	OR13a response (VUAA1-normalized response) (Drosophila OR13a; VOC concentration 10 μM)	OR13a response (VUAA1-normalized response) (Drosophila OR13a; VOC concentration 100 μM)	DF norm AVERAGE OR13a (Drosophila OR13a; [4])	DF norm AVERAGE OR13a (Drosophila OR13a; [5])	Average response (Drosophila OR49b; [7])	Average response (Drosophila OR49b; [8])	Average response (Drosophila OR49b; [9])	activation at 1 µM (Drosophila OR13a; [10])	activation at 10 µM (Drosophila OR13a; [11])	activation at 100 µM (Drosophila OR13a; [12])	DF norm AVERAGE OR13a (Drosophila OR13a; [13])	DF norm AVERAGE OR13a (Drosophila OR13a; [14])	DF norm AVERAGE OR13a (Drosophila OR13a; [15])	DF norm AVERAGE OR49b (Drosophila OR49b; [13])	DF norm AVERAGE OR49b (Drosophila OR49b; [14])	DF norm AVERAGE OR49b (Drosophila OR49b; [15])	other results
CC1=CCC[C@@]2(C)[C@@H]3CC[C@]12CC3(C)C [(−)-α-neoclovene]	0.0436	0.00	0.00	0.00	0.00	0.00	0	0	0.00	0.00	0.00										DF norm AVERAGE OR13a (Drosophila OR13a; [6]): 0; DF norm AVERAGE OR49b (Drosophila OR49b): 0; OR49b response (VUAA1-normalized response) (Drosophila OR49b; VOC concentration 1 μM): 0.00; OR49b response (VUAA1-normalized response) (Drosophila OR49b; VOC concentration 10 μM): 0.00; OR49b response (VUAA1-normalized response) (Drosophila OR49b; VOC concentration 100 μM): 0.00
C=C(C)C1CCC2(C)OC2C1 (single isomer, unassigned; (+)) [(+)-limonene oxide]	0.00	0.00	0.00	0.00	0.00	0.00	0	0	0.00	0.00	0.00										DF norm AVERAGE OR13a (Drosophila OR13a; [6]): 0; DF norm AVERAGE OR49b (Drosophila OR49b): 0; OR49b response (VUAA1-normalized response) (Drosophila OR49b; VOC concentration 1 μM): 0.00; OR49b response (VUAA1-normalized response) (Drosophila OR49b; VOC concentration 10 μM): 0.00; OR49b response (VUAA1-normalized response) (Drosophila OR49b; VOC concentration 100 μM): 0.00
CCCOC(C)=O [propyl acetate]									0.00	0.00	0.014	0%	0%	0%	0	0	0	0	0	0	OR13a response (VUAA1-normalized) at 1 μM (Drosophila OR13a; OR13a cell line, VOC concentration 1 μM): 0.00; OR13a response (VUAA1-normalized) at 10 μM (Drosophila OR13a; OR13a cell line, VOC concentration 10 μM): 0.00; OR13a response (VUAA1-normalized) at 100 μM (Drosophila OR13a; OR13a cell line, VOC concentration 100 μM): 0.00; OR49b response (VUAA1-normalized) at 1 μM (Drosophila OR49b; OR49b cell line, VOC concentration 1 μM): 0.00; OR49b response (VUAA1-normalized) at 10 μM (Drosophila OR49b; OR49b cell line, VOC concentration 10 μM): 0.00; OR49b response (VUAA1-normalized) at 100 μM (Drosophila OR49b; OR49b cell line, VOC concentration 100 μM): 0.00
CC(=O)c1ccccc1 [acetophenone]									0.00	0.00	0.13	0%	0%	0%	0	0	0	0	0	0.1277	activation at 1 µM (Drosophila OR13a; [16]): 0%; activation at 10 µM (Drosophila OR13a; [17]): 0%; activation at 100 µM (Drosophila OR13a; [18]): 0%; activation at 1 µM (Drosophila OR49b; 1 μM VOC, 50 μM VUAA1 = 1, read-out: OR49b Average response (VUAA1-normalized)): 0%; activation at 10 µM (Drosophila OR49b; 10 μM VOC, 50 μM VUAA1 = 1, read-out: OR49b Average response (VUAA1-normalized)): 0%; activation at 100 µM (Drosophila OR49b; 100 μM VOC, 50 μM VUAA1 = 1, read-out: OR49b Average response (VUAA1-normalized)): 13%; activation at 1 µM (Drosophila OR49b; [19]): 0%; activation at 10 µM (Drosophila OR49b; [20]): 0%; activation at 100 µM (Drosophila OR49b; [21]): 13%
CC/C=C\CCO [Z3-hexenol]	0.04	0.06	0.00						0.0226	0.00	0.00										DF norm AVERAGE OR13a (Drosophila OR13a; [22]): 0; DF norm AVERAGE OR13a (Drosophila OR13a; [23]): 0.05798; DF norm AVERAGE OR13a (Drosophila OR13a; [24]): 0; DF norm AVERAGE OR49b (Drosophila OR49b; [22]): 0; DF norm AVERAGE OR49b (Drosophila OR49b; [23]): 0; DF norm AVERAGE OR49b (Drosophila OR49b; [24]): 0
CCCCOC(=O)CC [butyl propanoate]									0.00	0.00	0.00	0%	0%	0%	0	0	0	0	0	0	activation at 1 µM (Drosophila OR13a; [16]): 0%; activation at 10 µM (Drosophila OR13a; [17]): 0%; activation at 100 µM (Drosophila OR13a; [18]): 0%; activation at 1 µM (Drosophila OR49b; [19]): 0%; activation at 10 µM (Drosophila OR49b; [20]): 0%; activation at 100 µM (Drosophila OR49b; [21]): 0%
